This passage reports IC50 and melting point results from patent US20060167048A1, “N-4-piperidinyl compounds as ccr5 modulators” (priority 2002, published 2006).

The target of data set [1] is recombinant human CCR5 receptor (Homo sapiens, UniProt P51681). Description: in vitro radioligand binding assay, inhibition of binding of iodinated RANTES or MIP-1α (scintillation proximity). Particulars: membranes from Chinese hamster ovary cells expressing recombinant human CCR5; 0.1 nM iodinated RANTES or MIP-1α; read-out: IC50 (concentration of compound which displaced 50% of bound iodinated RANTES or MIP-1α). The procedure:
The ability of compounds to inhibit the binding of RANTES or MIP-1α was assessed by an in vitro radioligand binding assay. Membranes were prepared from Chinese hamster ovary cells which expressed the recombinant human CCR5 receptor. These membranes were incubated with 0.1 nM iodinated RANTES or MP-1α, scintillation proximity beads and various concentrations of the compounds of the invention in 96-well plates. The amount of iodinated RANTES or MIP-1α bound to the receptor was determined by scintillation counting. Competition curves were obtained for compounds and the concentration of compound which displaced 50% of bound iodinated RANTES or MIP-1α was calculated (IC50).
On the technique in general: Scintillation proximity formats need no separation of bound from free tracer.

Chain of recombinant human CCR5 receptor (P51681 whole entry): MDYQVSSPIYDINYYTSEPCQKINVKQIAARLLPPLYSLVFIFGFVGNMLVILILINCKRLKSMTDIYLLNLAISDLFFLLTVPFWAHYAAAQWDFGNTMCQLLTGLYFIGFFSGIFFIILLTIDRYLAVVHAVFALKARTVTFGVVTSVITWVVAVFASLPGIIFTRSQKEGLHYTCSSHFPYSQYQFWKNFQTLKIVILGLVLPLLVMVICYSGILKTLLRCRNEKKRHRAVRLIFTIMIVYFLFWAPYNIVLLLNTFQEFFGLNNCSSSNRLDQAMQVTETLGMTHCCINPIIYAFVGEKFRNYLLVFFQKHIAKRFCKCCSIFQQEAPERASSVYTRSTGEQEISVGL

For the molecule `CCN(C(=O)Cc1ccc(S(C)(=O)=O)cc1)C1CCN(CC[C@H](NC(=O)C2CCN(C(C)=O)CC2)c2ccccc2)CC1` [Compound 1 of Table I, (S)-1-acetyl-piperidine-4-carboxylic acid [3-(4-{ethyl-[2-(4-methanesulfonyl-phenyl)-acetyl]-amino}-piperidin-1-yl)-1-phenyl-propyl]-amide], the IC50 in data set [1] was determined as 0.039 µM. Usually melting point stands for the temperature, or range, at which the solid turns liquid. Turning to `CCN(C(=O)Cc1ccc(S(C)(=O)=O)cc1)C1CCN(CC[C@H](NC(=O)OC(C)(C)C)c2ccccc2)CC1` [Compound 1 of Table II, (S)-[3-(4-{ethyl-[2-(4-methanesulfonyl-phenyl)-acetyl]-amino}-piperidin-1-yl)-1-phenyl-propyl]-carbamic acid tert-butyl ester], the melting point lay in the range of 115 to 116 °C. Turning to `CCN(C(=O)Cc1ccc(S(C)(=O)=O)cc1)C1CCN(CC[C@H](NC(=O)OCCOC)c2ccccc2)CC1` [Compound 3 of Table II], the IC50 in data set [1] was 0.11 µM. Still for that read-out and setting: to `CCN(C(=O)Cc1ccc(S(C)(=O)=O)cc1)C1CCN(CC[C@H](NC(=O)C2CCN(S(C)(=O)=O)CC2)c2ccccc2)CC1` [Compound 5 of Table I] belongs 0.028 µM.
